Assay results as given in patent US20210206875A1, “ERBB-2 TARGETING AGENT AND A BISPECIFIC ANTIBODY WITH ANTIGEN-BINDING SITES THAT BIND AN EPITOPE ON AN EXTRACELLULAR PART OF ERB-2 AND ERBB-3, FOR TREATMENT OF AN INDIVIDUAL WITH AN ERBB-2, ERBB-2/ERBB-3 POSITIVE TUMOUR” (Merus N.V., priority 2017, published 2021).
Values joined by “and” are separate entries in the source; they are usually repeats but may differ in a detail not shown here. Equal values may be shown once.

Columns and labels:
[1] = tested on: HER2 overexpressing cells (SK-BR-3, BT-474, N87); test: Drug combinations with PB4188 in vitro (isobolograms); type: cell-based, human; details: in the presence of HRG, matrigel or HRG stress concentrations
Procedure: Moreover, combination with chemotherapeutic drugs and cyclin inhibitors were tested. Combinations were tested on HER2 overexpressing cells growing in the presence of HRG in matrigel (SK-BR-3 and BT-474) or in the presence of HRG stress concentrations (N87 and SK-BR-3 as described in proliferation assays). The inhibitory effect of drug combinations was tested by imaging or by measuring proliferation using Alamar Blue as described herein before. […] The extent of growth inhibition obtained with each combination was calculated. […] The inhibition values of the combination experiments were used by CHALICE™ Analyzer software to generate the isobolograms.

[2] = tested on: intracranial ST1360B PDX tumors; test: Intracranial ST1360B PDX tumor model; type: in vivo, mouse
Procedure: The viability of total cells was greater than 80%. […] The cells were kept on ice until inoculation.
Drugs were diluted in sterile saline before each dosing. […] The dosing volume was 5.0 mL/kg.
The fixative: tissue ratio was at least 20:1.
Image analysis was performed using Horos.

[3] = compared to vehicle treated mice

## Cc1nc(NC(=O)N2CCC[C@H]2C(N)=O)sc1-c1ccnc(C(C)(C)C(F)(F)F)c1 [BYL719]
[1]
  drug combination with PB4188 (isobologram analysis): synergistic

## NC1(c2ccc(-c3nc4ccn5c(=O)[nH]nc5c4cc3-c3ccccc3)cc2)CCC1 [MK-2206]
[1]
  drug combination with PB4188 (isobologram analysis): synergistic

## CO[C@H]1C[C@@H]2CC[C@@H](C)[C@@](O)(O2)C(=O)C(=O)N2CCCC[C@H]2C(=O)O[C@H]([C@H](C)C[C@@H]2CC[C@@H](OCCO)[C@H](OC)C2)CC(=O)[C@H](C)/C=C(\C)[C@@H](O)[C@@H](OC)C(=O)[C@H](C)C[C@H](C)/C=C/C=C/C=C/1C [everolimus]
[1]
  drug combination with PB4188 (isobologram analysis): synergistic

## CS(=O)(=O)CCNCc1ccc(-c2ccc3ncnc(Nc4ccc(OCc5cccc(F)c5)c(Cl)c4)c3c2)o1 [lapatinib]
[1]
  drug combination with PB4188 (isobologram analysis): synergistic

## CCOc1cc2ncc(C#N)c(Nc3ccc(OCc4ccccn4)c(Cl)c3)c2cc1NC(=O)/C=C/CN(C)C [neratinib]
[1]
  drug combination with PB4188 (isobologram analysis): synergistic

## CC(=O)O[C@H]1C(=O)[C@@]2(C)[C@H]([C@H](OC(=O)c3ccccc3)[C@]3(O)C[C@H](OC(=O)[C@H](O)[C@@H](NC(=O)c4ccccc4)c4ccccc4)C(C)=C1C3(C)C)[C@]1(OC(C)=O)CO[C@@H]1C[C@@H]2O [paclitaxel]
[1]
  drug combination with PB4188 (isobologram analysis): synergistic

## O=C(CCCCCCC(=O)Nc1ccccc1)NO [vorinostat]
[1]
  drug combination with PB4188 (isobologram analysis): synergistic

## MCLA-128: bispecific antibody MCLA-128 directed against HER2 and HER3
[2]; MRI, scale 0-4 (0 no, 4 massive brain edema), individual mice, day 3 post initiation of therapy
  Brain edema score day 3: 2 (2×) and 0 (2×) and 1 (4×)
[2]; MRI, scale 0-4, individual mice, day 7
  Brain edema score day 7: 2 (4×) and 0 (2×) and 3 and 1
[2]; MRI, scale 0-4, individual mice, day 10
  Brain edema score day 10: 2 (4×) and 0 (2×) and 3 and 1
[2]; MRI, scale 0-4, individual mice, day 14
  Brain edema score day 14: 1 (4×) and 0 and 3 (3×)
[2]; MRI, scale 0-4, individual mice, day 21
  Brain edema score day 21: 2 (2×) and 1 (3×) and 3 (3×)
[2]; MRI, scale 0-4, individual mice, day 28
  Brain edema score day 28: 3 (4×) and 4
[2]; MRI, scale 0-4, individual mice, day 35
  Brain edema score day 35: 3
[2]; MRI, scale 0-4, individual mice, day 42
  Brain edema score day 42: 3
[2]; MRI, scale 0-4, individual mice, last MR scan
  Brain edema final score: 3 (4×) and 1 (3×) and 4
[2]; [3]
  tumor growth by T2-weighted MRI: tumor growth delay
[2]; post therapy initiation, T-DM1 10 mg/kg qwk, MCLA-128 25 mg/kg twice wk, i.v., vehicle 13 days
  median survival: 29 days

## trastuzumab-emtansine [T-DM1, reference compound]
[2]; [3]
  tumor growth by T2-weighted MRI: Tumor growth was inhibited
[2]; compared to vehicle treated mice, p<0.05
  mean tumor volume 10 days post therapy: significantly smaller
